Results reported in ChEMBL document CHEMBL1201862, “PubChem BioAssay data set” (2004).
Calls of active or inactive are those of the source.

Legend:
[1] = target: T1, Voltage-gated N-type calcium channel alpha-1B subunit/Amyloid beta A4 precursor protein-binding family A member 1 (Homo sapiens, UniProt Q00975+Q02410); assay type: protein assay
[2] = target: T2, Mannose-6-phosphate isomerase (Homo sapiens, UniProt P34949); assay: inhibitors of human PMI, primary screen, biochemical, fluorescence intensity, coupled assay (AID 1209)
T2 sequence (P34949 whole entry): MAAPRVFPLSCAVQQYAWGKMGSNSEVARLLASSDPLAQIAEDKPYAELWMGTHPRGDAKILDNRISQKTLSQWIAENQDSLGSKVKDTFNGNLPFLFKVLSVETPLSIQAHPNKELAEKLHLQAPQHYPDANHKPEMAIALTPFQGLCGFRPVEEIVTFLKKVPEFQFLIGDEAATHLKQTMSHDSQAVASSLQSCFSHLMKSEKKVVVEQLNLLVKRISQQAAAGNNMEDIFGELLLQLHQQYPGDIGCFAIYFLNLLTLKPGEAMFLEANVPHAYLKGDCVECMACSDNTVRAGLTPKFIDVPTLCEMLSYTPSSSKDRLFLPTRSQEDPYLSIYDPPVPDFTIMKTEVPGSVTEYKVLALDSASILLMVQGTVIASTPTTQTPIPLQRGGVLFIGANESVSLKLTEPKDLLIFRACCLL

[3] = target: T1, Voltage-gated N-type calcium channel alpha-1B subunit/Amyloid beta A4 precursor protein-binding family A member 1; assay type: protein assay; remark: listed apart in the source
[4] = target: DNA dC->dU-editing enzyme APOBEC-3A (Homo sapiens, UniProt P31941); assay: APOBEC3A DNA deaminase inhibitors, dose response, biochemical (AID 504722); assay type: functional
[5] = target: Eukaryotic translation initiation factor 4E (Mus musculus, UniProt P63073); assay: eIF4E–eIF4G protein interaction inhibitors, dose response, biochemical, TR-FRET (AID 855); assay type: functional;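 note: potency for disrupting eIF4E binding to eIF4GI seen as loss of FRET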
[6] = target: DNA dC->dU-editing enzyme APOBEC-3G (Homo sapiens, UniProt Q9HC16); assay: Dose Response confirmation of small molecule APOBEC3G DNA Deaminase Inhibitors via a fluorescence-based single-stranded DNA deaminase assay. [Related pubchem assays (depositor defined):AID493012, AID493028]; assay type: functional
[7] = target: T3, Eukaryotic translation initiation factor 2-alpha kinase 3 (Homo sapiens, UniProt Q9NZJ5); assay: Dose response cell-based high-throughput screening assay to measure PERK inhibition. [Related pubchem assays: 1416 ]; assay type: functional
T3 sequence (Q9NZJ5 whole entry): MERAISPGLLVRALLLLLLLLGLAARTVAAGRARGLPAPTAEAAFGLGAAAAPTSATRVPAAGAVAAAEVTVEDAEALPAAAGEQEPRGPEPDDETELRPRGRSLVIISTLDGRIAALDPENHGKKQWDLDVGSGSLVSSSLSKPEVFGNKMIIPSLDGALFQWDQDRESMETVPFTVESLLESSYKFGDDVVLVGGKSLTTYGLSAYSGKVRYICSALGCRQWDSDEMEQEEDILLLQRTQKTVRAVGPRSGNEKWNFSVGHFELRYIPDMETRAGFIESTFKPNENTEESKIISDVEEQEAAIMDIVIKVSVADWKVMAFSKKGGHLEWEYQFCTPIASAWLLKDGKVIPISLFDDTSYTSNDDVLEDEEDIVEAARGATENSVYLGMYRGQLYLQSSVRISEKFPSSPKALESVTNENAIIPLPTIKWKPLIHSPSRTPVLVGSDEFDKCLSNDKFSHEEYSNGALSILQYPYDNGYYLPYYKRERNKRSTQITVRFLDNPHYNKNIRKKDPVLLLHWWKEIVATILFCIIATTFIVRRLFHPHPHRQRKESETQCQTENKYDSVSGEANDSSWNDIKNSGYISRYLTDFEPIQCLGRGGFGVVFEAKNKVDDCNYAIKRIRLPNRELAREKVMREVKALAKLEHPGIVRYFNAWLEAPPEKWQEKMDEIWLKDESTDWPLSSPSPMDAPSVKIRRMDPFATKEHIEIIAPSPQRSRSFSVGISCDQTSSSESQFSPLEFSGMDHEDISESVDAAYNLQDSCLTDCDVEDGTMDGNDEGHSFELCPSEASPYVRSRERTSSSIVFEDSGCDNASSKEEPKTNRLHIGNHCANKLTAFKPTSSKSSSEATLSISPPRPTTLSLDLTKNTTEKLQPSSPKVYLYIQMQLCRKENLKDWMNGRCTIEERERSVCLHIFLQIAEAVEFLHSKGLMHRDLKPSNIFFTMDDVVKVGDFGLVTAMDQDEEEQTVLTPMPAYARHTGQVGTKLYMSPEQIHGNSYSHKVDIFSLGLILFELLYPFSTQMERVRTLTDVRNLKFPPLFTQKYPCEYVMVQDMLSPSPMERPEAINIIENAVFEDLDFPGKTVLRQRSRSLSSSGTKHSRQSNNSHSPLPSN

[8] = target: T3, Eukaryotic translation initiation factor 2-alpha kinase 3; assay: Counterscreen assay for PERK inhibitors: Dose response cell-based high throughput screening assay to measure inhibition of PERK at 6 hours. [Related pubchem assays: 1522, 1416 ]; assay type: functional
[9] = target: Cytochrome P450 2D6 (Homo sapiens, UniProt P10635);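 note: CYP2D6 member of a cytochrome P450 panel assay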
[10] = target: Exodeoxyribonuclease V (Escherichia coli (strain K12), UniProt P04993+P07648+P08394); assay: E. coli RecBCD inhibitors, dose response, counter-screen for AddAB inhibitor project, absorbance, V66 E. coli, mutant T4 phage (AID 492957); assay type: functional, cell-based, Escherichia coli str. K-12 substr. MG1655
[11] = Counterscreen for AddAB inhibitors: absorbance-based bacterial cell-based high throughput dose response assay for inhibitors of bacterial viability. [Related pubchem assays (depositor defined):AID435030, AID449728, AID449731, AID488942, AID488955, AID488956]; assay type: functional
[12] = cytotoxicity in HEK-293T cells, dose response, cytotoxicity control for BCR NF-kB inhibitor project, luminescence, B-cell screen hits (AID 489021); assay type: functional, cell-based;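 note: HEK-293T cells carrying an NF-kB luciferase reporter; cells exposed to compound for about 14 hours before viability readout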
[13] = target: Troponin, cardiac muscle (Homo sapiens, UniProt P19429+P45379+P63316); assay: Fluorescence-based biochemical high throughput dose response assay for activators of the calcium sensitivity of cardiac Regulated Thin Filaments (RTF). [Related pubchem assays (depositor defined):AID493008, AID493018, AID504382, AID504383]; assay type: protein-complex assay
[14] = target: G-protein coupled receptor 35 (Homo sapiens, UniProt Q9HC97); assay: GPR35 antagonists blocking zaprinast-driven arrestin recruitment, primary screen, imaging, U2OS, beta-arrestin-GFP, zaprinast agonist (AID 2058); assay type: functional;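 note: antagonist potency meaning inhibition of agonist-induced arrestin redistribution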
[15] = THP-1 cell cytotoxicity, dose response, cytotoxicity control for non-replicating M. tuberculosis project (AID 489025); assay type: functional
[16] = cells; assay type: functional
[17] = target: T4, Mitochondrial peptide methionine sulfoxide reductase (Bos taurus, UniProt P54149); assay: Absorbance-based biochemical high throughput dose response assay for activators of Methionine sulfoxide reductase A (MsrA).; assay type: functional
T4 sequence (P54149 whole entry): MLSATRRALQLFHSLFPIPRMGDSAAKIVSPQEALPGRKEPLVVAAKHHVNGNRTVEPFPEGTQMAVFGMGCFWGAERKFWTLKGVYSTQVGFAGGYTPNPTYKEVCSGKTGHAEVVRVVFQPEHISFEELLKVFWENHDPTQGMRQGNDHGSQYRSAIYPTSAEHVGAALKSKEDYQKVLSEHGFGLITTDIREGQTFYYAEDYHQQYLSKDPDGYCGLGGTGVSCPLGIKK

[18] = target: Aspartyl aminopeptidase (Plasmodium falciparum 3D7, UniProt Q8I2J3)
[19] = target: Procathepsin L (Homo sapiens, UniProt P07711)
[20] = target: Melanin-concentrating hormone receptor 1 (Homo sapiens, UniProt Q99705); assay: Late-stage fluorescence-based counterscreen for antagonists of the G-protein coupled receptor 7 (GPR7): cell-based dose response assay to identify antagonists of the melanin-concentrating hormone receptor 1 (MCHR1). [Related pubchem assays (depositor defined):AID1861, AID1880, AID1952, AID2148, AID2251, AID2257, AID485339]; assay type: functional;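 note: stimulated with 30 nM MCH peptide agonist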
[21] = target: T5, Neuropeptides B/W receptor type 1 (Homo sapiens, UniProt P48145); assay: GPR7 antagonist potency, late-stage follow-up, cell-based, fluorescence, dose response (AID 463251); assay type: functional
T5 sequence (P48145 whole entry): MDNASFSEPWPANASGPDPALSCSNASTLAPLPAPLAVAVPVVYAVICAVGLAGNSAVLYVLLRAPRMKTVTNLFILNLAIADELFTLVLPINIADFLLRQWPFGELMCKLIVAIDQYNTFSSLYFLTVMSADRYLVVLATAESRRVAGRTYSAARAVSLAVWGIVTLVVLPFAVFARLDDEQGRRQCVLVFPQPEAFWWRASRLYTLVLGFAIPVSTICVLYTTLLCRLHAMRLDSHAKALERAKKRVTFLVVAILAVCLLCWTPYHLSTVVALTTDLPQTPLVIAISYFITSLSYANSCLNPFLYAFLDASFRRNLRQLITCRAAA

T1 sequence (Q00975 whole entry): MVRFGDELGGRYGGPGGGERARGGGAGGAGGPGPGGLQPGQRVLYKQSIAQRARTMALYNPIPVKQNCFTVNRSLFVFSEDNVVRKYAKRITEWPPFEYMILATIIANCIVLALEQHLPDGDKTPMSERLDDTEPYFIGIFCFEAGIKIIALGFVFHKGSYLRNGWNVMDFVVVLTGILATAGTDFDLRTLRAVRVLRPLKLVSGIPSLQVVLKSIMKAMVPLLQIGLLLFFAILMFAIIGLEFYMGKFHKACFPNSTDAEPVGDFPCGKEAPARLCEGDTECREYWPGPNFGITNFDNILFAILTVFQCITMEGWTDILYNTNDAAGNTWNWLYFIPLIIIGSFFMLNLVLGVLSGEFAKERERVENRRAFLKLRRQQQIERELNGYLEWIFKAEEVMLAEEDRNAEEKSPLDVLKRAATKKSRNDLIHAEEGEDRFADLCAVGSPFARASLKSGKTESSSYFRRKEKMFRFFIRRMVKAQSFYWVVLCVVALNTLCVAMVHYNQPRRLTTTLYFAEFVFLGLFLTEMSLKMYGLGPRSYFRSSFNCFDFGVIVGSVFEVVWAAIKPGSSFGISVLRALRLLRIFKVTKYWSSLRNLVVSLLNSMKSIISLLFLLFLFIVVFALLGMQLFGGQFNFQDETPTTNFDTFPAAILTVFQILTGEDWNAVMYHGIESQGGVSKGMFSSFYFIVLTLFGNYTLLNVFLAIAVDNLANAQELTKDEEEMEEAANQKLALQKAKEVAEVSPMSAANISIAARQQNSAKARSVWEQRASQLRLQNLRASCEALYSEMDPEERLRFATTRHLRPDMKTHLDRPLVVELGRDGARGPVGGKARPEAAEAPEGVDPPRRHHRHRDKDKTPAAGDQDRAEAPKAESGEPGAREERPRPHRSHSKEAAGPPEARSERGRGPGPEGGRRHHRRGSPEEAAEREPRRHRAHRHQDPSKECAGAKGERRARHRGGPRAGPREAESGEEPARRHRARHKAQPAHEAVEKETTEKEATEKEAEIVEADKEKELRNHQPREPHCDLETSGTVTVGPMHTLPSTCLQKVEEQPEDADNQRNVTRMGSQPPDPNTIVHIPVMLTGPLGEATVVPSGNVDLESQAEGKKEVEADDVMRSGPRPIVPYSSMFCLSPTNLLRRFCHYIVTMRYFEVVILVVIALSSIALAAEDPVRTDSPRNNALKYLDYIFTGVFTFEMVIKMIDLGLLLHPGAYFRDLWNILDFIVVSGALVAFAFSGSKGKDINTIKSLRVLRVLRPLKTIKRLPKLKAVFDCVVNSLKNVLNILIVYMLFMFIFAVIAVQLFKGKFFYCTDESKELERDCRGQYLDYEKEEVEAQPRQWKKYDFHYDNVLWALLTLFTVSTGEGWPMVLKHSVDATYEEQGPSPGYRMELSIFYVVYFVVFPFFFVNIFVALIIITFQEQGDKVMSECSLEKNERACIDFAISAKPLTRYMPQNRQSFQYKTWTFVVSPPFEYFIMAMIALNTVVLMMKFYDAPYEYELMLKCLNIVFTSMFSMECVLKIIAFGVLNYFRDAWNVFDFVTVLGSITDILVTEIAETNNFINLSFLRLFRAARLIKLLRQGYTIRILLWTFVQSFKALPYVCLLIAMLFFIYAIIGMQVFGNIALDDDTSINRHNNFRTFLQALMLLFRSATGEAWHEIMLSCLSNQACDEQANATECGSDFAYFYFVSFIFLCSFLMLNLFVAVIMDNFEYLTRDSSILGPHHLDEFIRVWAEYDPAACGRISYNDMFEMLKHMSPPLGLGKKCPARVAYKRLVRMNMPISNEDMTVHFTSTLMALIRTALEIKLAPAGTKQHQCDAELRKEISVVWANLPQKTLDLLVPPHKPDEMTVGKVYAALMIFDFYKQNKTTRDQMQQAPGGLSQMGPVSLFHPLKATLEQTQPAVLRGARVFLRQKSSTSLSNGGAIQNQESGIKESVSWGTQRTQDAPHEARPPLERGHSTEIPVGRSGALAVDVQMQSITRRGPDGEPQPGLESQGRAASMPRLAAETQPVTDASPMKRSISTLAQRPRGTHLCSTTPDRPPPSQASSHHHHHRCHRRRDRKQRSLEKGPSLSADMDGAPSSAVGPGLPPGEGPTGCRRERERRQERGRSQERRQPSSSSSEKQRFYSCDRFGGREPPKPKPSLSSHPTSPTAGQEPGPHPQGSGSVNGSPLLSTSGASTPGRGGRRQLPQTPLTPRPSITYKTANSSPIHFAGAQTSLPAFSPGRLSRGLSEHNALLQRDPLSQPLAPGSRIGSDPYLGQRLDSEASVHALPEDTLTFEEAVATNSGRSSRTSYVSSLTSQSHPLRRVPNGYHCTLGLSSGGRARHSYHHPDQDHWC
T1 sequence (Q02410 whole entry): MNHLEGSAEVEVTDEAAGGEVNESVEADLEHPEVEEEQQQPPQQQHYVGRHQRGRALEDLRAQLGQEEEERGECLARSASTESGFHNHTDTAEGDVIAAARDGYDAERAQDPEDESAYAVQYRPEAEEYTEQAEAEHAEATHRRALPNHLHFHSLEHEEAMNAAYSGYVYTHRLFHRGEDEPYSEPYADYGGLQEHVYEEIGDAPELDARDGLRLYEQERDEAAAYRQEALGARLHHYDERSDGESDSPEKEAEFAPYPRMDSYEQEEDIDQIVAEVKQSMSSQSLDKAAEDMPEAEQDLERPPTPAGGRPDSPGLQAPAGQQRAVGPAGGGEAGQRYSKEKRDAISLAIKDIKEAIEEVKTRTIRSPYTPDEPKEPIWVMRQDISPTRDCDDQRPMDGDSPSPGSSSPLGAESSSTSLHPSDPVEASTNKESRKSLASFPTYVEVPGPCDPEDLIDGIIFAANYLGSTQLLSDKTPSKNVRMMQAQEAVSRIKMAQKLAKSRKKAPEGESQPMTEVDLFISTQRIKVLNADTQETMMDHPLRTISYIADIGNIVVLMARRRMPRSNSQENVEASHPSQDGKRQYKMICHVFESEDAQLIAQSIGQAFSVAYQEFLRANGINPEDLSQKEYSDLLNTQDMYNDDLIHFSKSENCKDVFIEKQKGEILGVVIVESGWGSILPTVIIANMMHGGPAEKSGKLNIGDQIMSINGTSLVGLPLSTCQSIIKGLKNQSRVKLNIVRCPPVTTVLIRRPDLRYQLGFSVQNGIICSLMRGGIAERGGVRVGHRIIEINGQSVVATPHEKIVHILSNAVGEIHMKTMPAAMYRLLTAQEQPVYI
Eukaryotic translation initiation factor 4E, sequence (P63073 whole entry): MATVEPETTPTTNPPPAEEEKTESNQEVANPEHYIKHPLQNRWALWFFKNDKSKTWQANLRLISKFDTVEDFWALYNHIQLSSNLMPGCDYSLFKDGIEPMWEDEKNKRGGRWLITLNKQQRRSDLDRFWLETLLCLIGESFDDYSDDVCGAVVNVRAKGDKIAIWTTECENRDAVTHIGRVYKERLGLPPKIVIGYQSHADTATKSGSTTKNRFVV
Aspartyl aminopeptidase, sequence (Q8I2J3 whole entry): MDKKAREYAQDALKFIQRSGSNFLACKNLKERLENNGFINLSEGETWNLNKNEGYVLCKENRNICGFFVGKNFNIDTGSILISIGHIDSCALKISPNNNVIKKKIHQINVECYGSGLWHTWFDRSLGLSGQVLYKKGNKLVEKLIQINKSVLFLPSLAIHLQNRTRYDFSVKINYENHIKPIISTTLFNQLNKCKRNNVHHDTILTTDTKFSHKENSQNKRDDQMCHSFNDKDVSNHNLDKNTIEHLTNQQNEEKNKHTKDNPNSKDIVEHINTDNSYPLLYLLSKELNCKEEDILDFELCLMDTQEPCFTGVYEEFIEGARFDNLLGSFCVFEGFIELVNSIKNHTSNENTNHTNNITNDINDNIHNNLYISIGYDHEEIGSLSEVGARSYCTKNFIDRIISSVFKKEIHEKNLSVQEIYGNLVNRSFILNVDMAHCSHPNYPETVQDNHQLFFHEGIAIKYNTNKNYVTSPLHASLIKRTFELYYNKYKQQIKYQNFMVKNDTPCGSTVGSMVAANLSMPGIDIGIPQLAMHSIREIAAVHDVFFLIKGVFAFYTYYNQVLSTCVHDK
Cytochrome P450 2D6, sequence (P10635 whole entry): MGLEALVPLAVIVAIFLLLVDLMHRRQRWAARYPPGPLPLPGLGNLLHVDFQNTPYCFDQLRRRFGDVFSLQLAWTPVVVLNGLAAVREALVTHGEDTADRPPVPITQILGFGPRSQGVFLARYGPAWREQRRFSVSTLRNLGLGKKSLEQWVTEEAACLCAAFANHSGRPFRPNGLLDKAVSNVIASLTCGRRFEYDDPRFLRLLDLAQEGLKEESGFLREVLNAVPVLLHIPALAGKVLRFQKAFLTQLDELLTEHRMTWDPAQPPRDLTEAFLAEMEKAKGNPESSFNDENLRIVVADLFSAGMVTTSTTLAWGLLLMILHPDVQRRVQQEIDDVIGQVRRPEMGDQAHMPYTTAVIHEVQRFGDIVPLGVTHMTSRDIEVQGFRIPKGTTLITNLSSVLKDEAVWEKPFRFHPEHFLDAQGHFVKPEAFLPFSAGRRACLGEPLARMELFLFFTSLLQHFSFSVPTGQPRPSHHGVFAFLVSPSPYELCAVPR
G-protein coupled receptor 35, sequence (Q9HC97 whole entry): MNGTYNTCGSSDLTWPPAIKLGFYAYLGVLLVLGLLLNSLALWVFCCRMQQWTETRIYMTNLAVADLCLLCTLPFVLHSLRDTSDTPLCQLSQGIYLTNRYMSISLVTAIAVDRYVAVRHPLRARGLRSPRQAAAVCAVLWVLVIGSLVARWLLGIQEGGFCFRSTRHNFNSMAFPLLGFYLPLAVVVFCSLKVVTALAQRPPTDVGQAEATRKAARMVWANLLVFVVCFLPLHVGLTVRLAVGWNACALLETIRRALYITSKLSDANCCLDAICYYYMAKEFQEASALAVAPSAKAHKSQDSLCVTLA
DNA dC->dU-editing enzyme APOBEC-3A, sequence (P31941 whole entry): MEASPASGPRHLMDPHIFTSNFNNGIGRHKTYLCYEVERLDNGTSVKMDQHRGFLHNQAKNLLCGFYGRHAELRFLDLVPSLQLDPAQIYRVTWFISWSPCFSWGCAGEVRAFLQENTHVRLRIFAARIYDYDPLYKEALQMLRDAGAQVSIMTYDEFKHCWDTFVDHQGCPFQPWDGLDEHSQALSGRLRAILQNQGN

Q: Which IC50 [1] does the source give for `N#Cc1cccc(/N=c2\ssnc2Cl)c1` here?
A: 10.9 µM (active)

Q: What about the IC50 [2] of the same molecule?
A: 26.7 µM (active)

Q: What about the IC50 [3] of the same molecule?
A: 11.3 µM (active)

Q: And the IC50 [4]?
A: > 100 µM (inactive)

Q: What about the IC50 [5] of the same molecule?
A: 50 µM (inactive)

Q: And the IC50 [6]?
A: 7.4 µM (active)

Q: Which EC50 [7] does the source give for `CC(C)(C)c1ccc(C(=O)Oc2ccccc2CCC(=O)O)cc1` here?
A: > 55.7 µM (not active)

Q: What about the EC50 [8] of the same molecule?
A: > 55.7 µM (not active)

Q: With `CC(=O)N1c2ccc(S(=O)(=O)CCC(=O)O)cc2CC1C` (stereo unspecified) as the molecule, how does the AC50 [9] read?
A: inconclusive

Q: Which results are given for `CCn1cc(C(=O)NCCc2ccccc2)c(=O)c2cc(F)c(N3CCN(C)CC3)cc21`?
A: IC50 [10]: > 118 µM (inactive); IC50 [11]: 27.1 µM (inactive)

Q: For `COc1ccc(-c2ccoc2)cc1[C@H]1[C@H]2C=CC[C@@H](C)[C@@H]2C(=O)N1Cc1ccccc1`, which IC50 [12] is on record?
A: > 80 µM (inactive)

Q: With `CCOC(=O)c1cc2n(c1N)-c1ccccc1C2=O` as the molecule, how does the EC50 [13] read?
A: 24.4 µM (inactive)

Q: Which IC50 [14] does the source give for `CCN(CC)c1ccc(-c2sc(Nc3ccccc3)n[n+]2-c2ccc(F)cc2)cc1` here?
A: 0.626 µM (active)

Q: And the CC50 [15]?
A: 26.4 µM (active)

Q: And the IC50 [16]?
A: 14 µM (active)

Q: What about the EC50 [17] of the same molecule?
A: > 104 µM (inactive)

Q: Which IC50 [18] does the source give for `c1ccc(NCn2cncn2)nc1` here?
A: 2.56 µM (active)

Q: What about the IC50 [19] of the same molecule?
A: > 59.6 µM (not active)

Q: What does the source list for `COc1ccc(Oc2c(N3CCCCC3)cnn(-c3ccc(C(C)C)cc3)c2=O)cc1`?
A: IC50 [20]: 5.7 µM (active); IC50 [21]: > 20 µM (inactive)
